According to paper PMC5471438, “Linaclotide activates guanylate cyclase‐C/cGMP/protein kinase‐II‐dependent trafficking of CFTR in the intestine” (Physiological Reports, 2017):
“Also recorded” adds a separate entry of the source.

Assays:
Caco‐2 cell line = conditions: human colonic Caco‐2 cell line; ref Castro et al. 2013; Silos‐Santiago et al. 2013; cited from earlier work
Excerpt: (§1) While the increase in intracellular cGMP following ligand activation of GC‐C is well established, the efflux of cGMP from enterocytes is not well studied.

rat colonic mucosa = conditions: apical and basolateral membrane, ref Silos‐Santiago et al. 2013, Tchernychev et al. 2015; cited from earlier work
Excerpt: as §1

[1] = via extracellular cGMP; ref Castro et al. 2013; Silos‐Santiago et al. 2013; Hannig et al. 2014; cited from earlier work
Excerpt: as §1

mouse colonic mucosa = conditions: apical and basolateral membrane, ref Silos‐Santiago et al. 2013, Tchernychev et al. 2015; cited from earlier work
Excerpt: as §1

CFTR [2] = assay: Surface biotinylation of CFTR in T84 cells; assay type: cell-based, human; conditions: linaclotide 1 μmol/L and 3.27 μmol/L, 30 min
GC‐C = conditions: ref Bryant et al. 2010; Busby et al. 2010; cited from earlier work
Excerpt: The synthetic GC‐C agonist peptide, linaclotide, is an FDA‐approved drug for adult patients with Irritable Bowel Syndrome with Constipation (IBS‐C) and Chronic Idiopathic Constipation (CIC) (Bryant et al. 2010; Busby et al. 2010). IBS‐C is a highly prevalent, chronic functional gastrointestinal disorder with a global prevalence estimated to range from 5% to 20% (Mayer 2008; Quigley et al. 2012).

cGKII (PKGII) = assay: VASP Ser239 phosphorylation in T84 cells, Western blot; assay type: cell-based, human; conditions: linaclotide 1 and 3.27 μmol/L, 30 min, 8Br‐cGMP 0.2 and 1 mmol/L positive control
Description: C2BBe or T84 cells were homogenized in TGH lysis buffer [25 mmol/L HEPES, 10% (vol/vol) glycerol, 1% (vol/vol) Triton‐ × 100, pH 7.4] containing protease inhibitors (10 nmol/L iodoacetamide, 1 mmol/L phenylmethylsulfonyl fluoride (PMSF), 2 μg/mL leupeptin) for 30 min on ice. Homogenates were solubilized, subject to centrifugation at 13,200 g for 15 min at 4°C, and cleared supernatants were recovered. Protein concentration of the supernatant was determined with Coomassie Protein Assay Reagent (Pierce) and samples prepared and analyzed as described (Kravtsov et al. 2016). Quantification of surface‐labeled proteins was performed with Quantity One image analysis software.
VASP was originally characterized as a substrate for both PKG (cGMP‐dependent kinase) and PKA (cAMP‐dependent kinase). […] To determine linaclotide‐induced activation of cGKII, we determined the phosphorylation of VASP^Ser239 30 min following treatment either with vehicle or linaclotide (1 μmol/L and 3.27 μmol/L; the 3.27 μmol/L concentration is equivalent to the 5 μg dose of linaclotide that was used in vivo in the rat jejunum loop). The membrane permeant cGMP analog, 8 Br‐cGMP (0.2 mmol/L, 1 mmol/L), was used as a positive control.

CFTR [3] = assay: Confocal immunofluorescence of CFTR in rat intestine; assay type: in vivo; conditions: linaclotide 5 μg, 30 min
Description: All animal studies were approved by the Institutional Animal Care and Use Committee of Yale University School of Medicine. Briefly, male Sprague–Dawley rats (200–250 g, Charles River Laboratories) were fasted overnight with access to drinking water ad libitum. Anesthesia was performed with Inactin® (Thiobutabarbital sodium salt hydrate, 120 mg/kg/i.p.). The jejunal, ileal, and proximal colonic loops (5 cm length) were prepared using sutures. Loops were instilled either with normal saline (pH7.4, 37°C) (1 mL/loop) or linaclotide (5 μg/mL/loop) for 30 min. At the end of the study, animals were euthanized with Inactin (200 mg/kg/i.p.).
After completion of treatment either with normal saline or linaclotide for 30 min, intestinal segments were immediately removed and briefly rinsed with ice‐cold PBS. Tissues were cut into ~2‐mm‐thick rings, fixed in 2% paraformaldehyde in PBS, pH 7.4 for 1 h at room temperature, rinsed with PBS and cryoprotected in 30% sucrose overnight. Multiple tissue samples were processed under identical conditions by the utilization of tissue arrays as previously described (Jakab et al. 2011). […] Immunolabeled sections were stored at 4°C and examined on Zeiss LSM 710 DUO laser scanning confocal microscope outfitted with a Mai‐Tai laser and electronics capable of spectrally separating fluorescence emission profiles. […]

[4] = system: rat proximal colonic mucosa; assay: Transepithelial short circuit current (Isc) across rat proximal colonic mucosa, Ussing chamber; design: species or system rat (Sprague–Dawley); conditions: rat proximal colonic mucosa, linaclotide 6 nmol/L and 100 nmol/L, apical; mean ± SEM (n = 4)
human colonic mucosa = assay: Transepithelial short circuit current (Isc) across human ascending colonic mucosa, Ussing chamber; conditions: human ascending colon, linaclotide 30 nmol/L and 1000 nmol/L, apical, pH 7.4, 37°C; mean ± SEM (n = 12)
T84 cells = assay: cGMP synthesis in T84 cells; assay type: cell-based, human
[5] = system: rat proximal colonic mucosa; design: method as in 2 sources, one per row (each row's own in cited_ref): ref Tchernychev et al. 2015 ||| ref Vaandrager et al. 1997; conditions: rat proximal colon / colonic epithelium; ref Tchernychev et al. 2015; read-out: EC50 for transepithelial ion current; cited from earlier work
[6] = Stability of linaclotide in human mucosa tissue supernatants by LC-MS; conditions: human intestinal mucosa supernatants, 1 μmol/L, 30 and 60 min incubation, 37°C
CFTR [7] = assay: Surface biotinylation of CFTR in C2BBe cells; assay type: cell-based, human; conditions: linaclotide 1 μmol/L and 3.27 μmol/L, 30 min

linaclotide
cGMP efflux (Caco‐2 cell line): induce cGMP efflux | cGMP efflux (rat colonic mucosa): induce cGMP efflux | antinociceptive effect [1]: antinociceptive effects in several models of colonic hypersensitivity | cGMP efflux (mouse colonic mucosa): induce cGMP efflux | CFTR recruitment to cell surface (CFTR [2]): increased cell surface CFTR levels; also recorded: robust recruitment of CFTR to the apical surface; also recorded: robust increase in surface levels of CFTR compared to untreated control cells | fluid secretion (GC‐C): increased fluid secretion | intestinal transit (GC‐C): accelerated intestinal transit | phosphorylation of VASP Ser239 (cGKII (PKGII)): more robust phosphorylation of VASP^Ser239 compared to 8Br‐cGMP; also recorded: higher levels of VASP^Ser239 phosphorylation compared to the lower concentration | phosphorylation of VASP Ser239 (cGKII (PKGII); listed as Linaclotide): more strongly enhanced phosphorylation of VASP^Ser239 compared to the cGMP analog 8‐Br‐cGMP | CFTR localization in brush border (confocal) (CFTR [3]): accumulation of CFTR in the brush border | linaclotide-induced transepithelial ion current (Isc) [4]: induced a transepithelial ion current at both concentrations | linaclotide-induced transepithelial ion current (Isc) (human colonic mucosa): induced transepithelial ion current at concentrations of 30 nmol/L and 1000 nmol/L | EC80 for cGMP synthesis (approximate) (T84 cells): ~1000 nM | EC100 for cGMP synthesis (approximate) (T84 cells): ~3 µmol/L | EC50 (T84 cells; IBMX 1 mmol/L 10 min, linaclotide 0.001–10 μmol/L 30 min, 37°C, pH 7, cGMP in supernatants by LC/MS/MS, n = 4): 772 nM | cGMP synthesis (T84 cells; linaclotide 0.001–10 μmol/L, 30 min, IBMX 1 mmol/L): concentration dependently stimulated cGMP synthesis | EC50 [5]: 9.2 nM | stability of linaclotide in tissue supernatants [6]: stable under these conditions | CFTR recruitment to cell surface (CFTR [7]): increased cell surface CFTR levels; also recorded: robust recruitment of CFTR to the apical surface; also recorded: robust increase in surface levels of CFTR compared to untreated control cells; also recorded: higher surface CFTR levels in C2BBe cells compared to T84 cells
